Experiments:
[1] = molecular target: T1, Poly [ADP-ribose] polymerase tankyrase-1 (Homo sapiens, UniProt O95271); experiment: Inhibition of human recombinant N-terminal GST-tagged PARP5a (1001 to 1327 end residues) expressed in baculovirus infected Sf9 cells expression system incubated for 1 hr by ELISA assay
T1 sequence (O95271 whole entry): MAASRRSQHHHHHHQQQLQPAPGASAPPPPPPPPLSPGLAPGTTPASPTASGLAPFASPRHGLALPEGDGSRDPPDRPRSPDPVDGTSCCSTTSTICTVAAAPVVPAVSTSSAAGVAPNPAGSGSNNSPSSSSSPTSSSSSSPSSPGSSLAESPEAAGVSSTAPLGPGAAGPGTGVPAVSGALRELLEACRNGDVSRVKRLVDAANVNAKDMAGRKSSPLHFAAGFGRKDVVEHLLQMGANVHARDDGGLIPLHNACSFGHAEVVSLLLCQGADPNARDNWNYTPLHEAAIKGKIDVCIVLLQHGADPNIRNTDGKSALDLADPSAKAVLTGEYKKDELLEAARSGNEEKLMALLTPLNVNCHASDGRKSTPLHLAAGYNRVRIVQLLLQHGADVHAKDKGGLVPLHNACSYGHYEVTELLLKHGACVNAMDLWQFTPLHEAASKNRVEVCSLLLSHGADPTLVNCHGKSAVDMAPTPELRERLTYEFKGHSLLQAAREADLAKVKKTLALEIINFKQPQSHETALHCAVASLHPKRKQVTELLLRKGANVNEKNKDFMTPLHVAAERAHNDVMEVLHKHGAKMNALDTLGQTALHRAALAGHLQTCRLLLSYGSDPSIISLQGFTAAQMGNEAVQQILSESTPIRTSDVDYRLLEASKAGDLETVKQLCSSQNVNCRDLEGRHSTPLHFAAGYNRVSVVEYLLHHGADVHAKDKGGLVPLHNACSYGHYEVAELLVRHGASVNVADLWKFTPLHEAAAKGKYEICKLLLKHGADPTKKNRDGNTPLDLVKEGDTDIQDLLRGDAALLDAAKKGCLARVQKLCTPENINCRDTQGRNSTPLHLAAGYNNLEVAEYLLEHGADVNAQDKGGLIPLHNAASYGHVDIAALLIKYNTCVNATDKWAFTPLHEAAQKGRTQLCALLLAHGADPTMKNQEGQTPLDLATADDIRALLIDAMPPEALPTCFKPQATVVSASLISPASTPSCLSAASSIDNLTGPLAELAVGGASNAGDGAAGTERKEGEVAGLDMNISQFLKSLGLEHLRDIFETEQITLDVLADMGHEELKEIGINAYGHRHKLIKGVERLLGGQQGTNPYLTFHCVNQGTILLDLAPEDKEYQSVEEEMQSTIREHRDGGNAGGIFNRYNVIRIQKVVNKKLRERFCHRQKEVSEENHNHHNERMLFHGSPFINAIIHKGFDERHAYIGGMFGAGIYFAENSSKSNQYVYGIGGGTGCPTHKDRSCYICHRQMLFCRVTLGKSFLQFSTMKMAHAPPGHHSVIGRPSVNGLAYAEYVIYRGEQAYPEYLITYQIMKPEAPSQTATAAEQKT

[2] = molecular target: T2, Poly [ADP-ribose] polymerase tankyrase-2 (Homo sapiens, UniProt Q9H2K2); experiment: Inhibition of human recombinant N-terminal GST-tagged PARP5b (667 to 1166 end residues) expressed in baculovirus infected Sf9 cells expression system incubated for 1 hr by ELISA assay
T2 sequence (Q9H2K2 whole entry): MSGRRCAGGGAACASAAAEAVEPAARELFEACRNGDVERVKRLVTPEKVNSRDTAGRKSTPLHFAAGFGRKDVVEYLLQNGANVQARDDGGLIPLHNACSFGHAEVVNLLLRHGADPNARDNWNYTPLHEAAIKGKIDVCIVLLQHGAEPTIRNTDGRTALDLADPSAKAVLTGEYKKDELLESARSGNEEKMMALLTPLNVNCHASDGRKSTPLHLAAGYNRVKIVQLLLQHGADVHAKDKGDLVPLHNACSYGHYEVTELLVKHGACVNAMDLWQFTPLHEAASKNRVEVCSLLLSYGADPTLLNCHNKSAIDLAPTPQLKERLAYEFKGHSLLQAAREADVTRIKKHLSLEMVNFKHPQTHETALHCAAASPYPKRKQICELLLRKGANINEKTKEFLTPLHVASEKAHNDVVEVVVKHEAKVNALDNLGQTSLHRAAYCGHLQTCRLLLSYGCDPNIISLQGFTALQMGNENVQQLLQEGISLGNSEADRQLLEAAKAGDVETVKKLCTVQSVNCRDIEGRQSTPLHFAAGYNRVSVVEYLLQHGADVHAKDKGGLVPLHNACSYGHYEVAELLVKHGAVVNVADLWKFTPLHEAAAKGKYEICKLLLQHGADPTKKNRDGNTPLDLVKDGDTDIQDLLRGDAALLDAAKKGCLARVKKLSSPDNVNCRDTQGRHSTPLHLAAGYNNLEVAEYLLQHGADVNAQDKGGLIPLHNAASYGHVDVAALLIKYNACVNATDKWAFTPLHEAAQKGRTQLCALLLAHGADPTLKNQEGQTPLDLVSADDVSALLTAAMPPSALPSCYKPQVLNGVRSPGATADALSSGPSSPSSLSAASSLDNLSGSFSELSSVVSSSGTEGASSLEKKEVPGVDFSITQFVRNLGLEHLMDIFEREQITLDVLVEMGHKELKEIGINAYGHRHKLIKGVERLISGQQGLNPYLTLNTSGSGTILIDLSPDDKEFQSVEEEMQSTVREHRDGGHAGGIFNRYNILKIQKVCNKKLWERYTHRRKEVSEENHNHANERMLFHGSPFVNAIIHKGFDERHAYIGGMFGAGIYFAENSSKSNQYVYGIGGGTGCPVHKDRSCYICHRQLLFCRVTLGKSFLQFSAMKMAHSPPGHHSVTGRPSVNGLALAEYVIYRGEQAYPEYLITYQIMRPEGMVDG

C[C@@H](CN1CC(C(=O)N2CCN(c3ncc(C(F)(F)F)cn3)CC2)C1)Nc1cn[nH]c(=O)c1C(F)(F)F
IC50 [1]: 174 nM
IC50 [2]: 227 nM

From ChEMBL document CHEMBL5316291 (J Med Chem, 2023)
